Data: a melting point compilation (Tetko et al.; mined from patent text by program, amines drawn as free bases though some values may be those of a salt)

Compound	melting point
CCCc1c(OC)c(OC)cc2c1C(=O)N(CSc1nnnn1-c1ccccc1)S2(=O)=O	145 to 146 °C
CCCCc1nc2c(N)nc3ccccc3c2n1CCOCCS(C)(=O)=O	168 to 170 °C
Cc1c(C(=O)Nc2ccc(N3CCC(N4CCOCC4)CC3)c(C#N)c2)cnn1-c1ccccc1Cl	218 °C
O=C(NNS(=O)(=O)c1ccccc1)c1cnc2ccccc2c1	249 to 250 °C
Cc1cc(C(=O)CCc2cc(-c3ccc(C(F)(F)F)cc3)nn2CC2CC2)ccc1OCC(=O)O	168 to 175 °C
N#Cc1ccc(N2C=CC(N)=C([N+](=O)[O-])C2)cc1	210 to 211 °C
CCCCc1nc2ccccc2n1Cc1ccc(C(=O)Nc2cccc3[nH]ccc23)cc1	196 °C
Cc1cc(Cl)nc(Cl)c1N	83 to 85 °C
CC1(C)OC(=O)C(Oc2ccc(Cl)cc2)=C1c1ccc(S(C)(=O)=O)cc1	113 to 114 °C
CC(=O)CCNC(=O)n1cc(F)c(=O)[nH]c1=O	158 to 159 °C
CC(=O)Nc1ccc(C=C2C(=S)c3cc(C)ccc3OC2c2ccccc2)cc1 (centres undefined)	197 to 198 °C
COC(=Cc1ccc(-c2cccc(N(C)C(=O)NCCc3ccccc3)c2)cc1)C(=O)O	144 °C
CCCCCCCCCCCCCCCCCc1nc(N)nc(N)n1	114 to 116 °C
COc1cc2c(cc1O)CCN(Cc1cccc(NS(C)(=O)=O)c1)C2	99 to 101 °C
CC1=C(Cc2ccc(C(=O)O)cc2)C(=O)C2C=CC=CC2C1=O (centres undefined)	206 to 208 °C
COc1cc(C=O)c([N+](=O)[O-])c(OC)c1	104 to 105 °C
COc1ccc(CCC(=O)c2c(OC)cc(OC)c(CCC(C)C)c2OCC(=O)O)cc1O	129 to 130 °C
CC(C)(C)OC(=O)c1ccc(N2CC(CO)OC2=O)cc1F (centres undefined)	148 to 149 °C
CN(C(=O)Cc1cccc2ccccc12)C1c2ccccc2CCC1N1CCCC1 (centres undefined)	125 °C
Cc1ccc(S(=O)(=O)NCc2ccccc2CC(=O)O)cc1	155 to 156 °C
COc1cc(-c2cc3ccccc3[nH]2)cc(OC)c1OS(=O)(=O)c1ccccc1	150 °C
S=C1Nc2ccccc2Cn2nnnc21	275 to 277 °C
CCOC(=O)c1c[nH]c(SC(F)(F)F)c1-c1ccc(Cl)cc1	162 to 164 °C
COc1cc2c(cc1-c1ccccc1F)NC(=O)CC(c1cccc(C#N)c1)=N2	245 to 247 °C
Nc1sc2c(c1C(=O)c1ccc(Br)c3ccccc13)CCCC2	176 to 178 °C

Compound	melting point
COC(=O)c1ccc(-c2nnc(C)o2)s1	142 to 145 °C
COc1c(C(C)(C)C)cc(C(N)=O)cc1C(C)(C)C	239 to 243 °C
CC1(C2CCCC2)Cc2cc(OCCCC(=O)O)c(Cl)c(Cl)c2C1=O (centres undefined)	154 °C
CCCN(CCC)CC1CCCCN1CCNC(=O)N1c2ccccc2C(=O)Nc2cccnc21 (centres undefined)	165 °C
Oc1ccc(Cn2ccn(C3CCc4ccccc4C3)c2=S)cc1O (centres undefined)	173 to 174 °C
NS(=O)(=O)N1CCN(c2ccc(Cl)cc2)CC1	218 to 220 °C
Cc1nc(-c2ccc(C(F)(F)F)cc2)oc1COc1ccc(/C=C/C(=O)O)cc1	193 °C
O=[N+]([O-])c1cccc2ccc3nc(O)c(O)nc3c12	> 300 °C
COc1ccccc1C(=O)Nc1ccccc1C(c1ccc(O)cc1)c1ccc(O)cc1	258 °C
c1ccc(CN2CCN(c3nc4nccc(-c5cccnc5)n4n3)CC2)cc1	149 to 150 °C
CCOC(=O)c1c(C(F)F)nc(C(F)(F)F)c(C(=O)OCC)c1Cl	35 to 40 °C
CCCc1nn(C)c2c(-c3ccc(S(C)(=O)=O)cc3)nc(-c3ccc(F)cc3)nc12	208 to 210 °C
COc1ccc(-c2c(C)c3ccc(OC(C)=O)c(O)c3oc2=O)c(OC)c1	140 to 141 °C
Cc1cc2c(cc1O)C(C)(C)CC1(CC(C)(C)c3cc(OCCCn4cccn4)c(C)cc3O1)O2 (centres undefined)	239 to 241 °C
Cc1cccc(C(=O)NN=Cc2cccc(Cl)c2O)c1	166 to 169 °C
CCCC1C(=O)Oc2c(Oc3ccccc3Cl)cccc21 (centres undefined)	51 to 53 °C
CCCCOc1cc(=O)n(C)c2ccccc12	77 to 80 °C
O=Cc1cn(Cc2ccc(OCc3coc(-c4ccccc4)n3)cc2)nc1-c1cccs1	153 to 154 °C
CCCCS(=O)(=O)Nc1ccc(CCCCOCCCCCCNCC(O)c2ccc(O)c(CO)c2)cc1 (centres undefined)	81 to 84 °C
Cc1cccc(-c2nc(N)sc2-c2ccnc(NCc3ccccc3)c2)c1	178 to 179 °C
Cc1c(-c2ccccc2)oc2c(OCCCl)cccc2c1=O	141 to 142 °C
COc1cccc2c1CC(N(CCCc1c[nH]c3ccc(F)cc13)C1CC1)CO2 (centres undefined)	115 °C
COC(=O)c1cccc2[nH]cc(C=O)c12	135 °C
Cc1c(Br)cccc1N1Cc2ccc(C(C)(C)C)cc2C1=O	120 to 122 °C
O=S1(=O)CCN2CCCC(c3ccc(Oc4ccc(Cl)cc4)cc3)C2=N1 (centres undefined)	215 to 216 °C

Compound	melting point
CC(=O)c1ccc(C(F)(F)C(F)(F)c2ccccc2)cc1	128 to 133 °C
CC(C(N)=S)(c1ccccc1)c1ccccc1	150 to 152 °C
O=c1ccc(-c2c(-c3ccccc3)nn3ccccc23)nn1C1CCCC(O)C1 (centres undefined)	117 to 118 °C
CC(CCCC(C(=O)O)C(=O)O)C1CC=C2C3=C(CCC21C)C1(C)CCC(O)C(C)(C)C1CC3 (centres undefined)	188 to 190 °C
COc1cc2c(cc1C=O)C(C)(C)C(=O)N2C	192 to 194 °C
O=c1c(-c2ccccc2)nc2ccccc2n1CC(F)F	85 to 88 °C
N#Cc1c(N2CCN(C(=O)c3cccs3)CC2)c2cc(F)cnc2n(CC(=O)c2ccccc2)c1=O	262 °C
CNc1cc2c(cn1)c(=O)n1nccc1n2C	> 300 °C
CCCCCN(Cc1ccc(-c2ccccc2S(=O)(=O)NC(=O)c2ccccc2Cl)cc1)C(=O)N(Cc1ccccc1)c1ccccc1	> 60 °C
Cc1ccc(C)c(OCCC(Cl)C(C)(C)C(=O)O)c1 (centres undefined)	117 to 118 °C
COC1CC(n2cc(C=CBr)c(=O)[nH]c2=O)OC1CCl (centres undefined)	145 °C
COc1cc(NCc2ccccc2C)ccc1C(=O)N1CCCC(CC(=O)N2CCN(C)CC2)c2cc(Cl)ccc21 (centres undefined)	153 to 154 °C
CC(=O)OC12Oc3cc(C(C)C)ccc3C1(OC(C)=O)C(=O)c1c(NS(C)(=O)=O)cccc12 (centres undefined)	96 to 100 °C
Cc1cccc(Nc2nc(-c3cc(-c4ccccc4)no3)cs2)n1	291 to 293 °C
COCCOC(=O)c1ccccc1Nc1nc(Nc2cc3c(cc2OC)CCN(CC(C)O)CC3)ncc1Cl (centres undefined)	100 °C
COc1cc2c(cc1-c1c(C)nn(C)c1C)-c1c(-c3cccs3)c3c(n1CC2)C(=O)N(C(C)C)CCN(C(=O)CCC(F)(F)F)C3	256 to 258 °C
CCCc1nn(C)c2c(=O)n(CCCNc3ccc(OC(C)(C)C(=O)O)cc3)c(CC)nc12	124 to 126 °C
CN(C(=O)c1ccc(-n2cccn2)cc1)C1CCN(C(=O)OC(C)(C)C)CC1	164 to 166 °C
ClCC1CN(Cc2ccccc2)CCN1Cc1ccccc1 (centres undefined)	54 to 56 °C
O=C(OCCc1ccc([N+](=O)[O-])cc1)C1Cc2c(ccc3[nH]ccc23)N1 (centres undefined)	192 to 194 °C
CN(C)C=Nc1nnnc2c1ncn2C1CC(O)C(CO)O1 (centres undefined)	173 to 175 °C
CCOCCOc1ccc(OCc2ccccc2)cc1	35 to 37 °C
CC(=O)N(C(=O)C1=NN(c2ccc(Cl)cc2)C(c2ccc(Cl)cc2)C1)c1ccc(C(F)(F)F)cc1 (centres undefined)	158 to 160 °C
COc1cc2c(cc1OCc1ccccc1)CCCCC2=O	95 to 96 °C
CNc1ccc(C(O)(C(F)(F)Cl)C(F)(F)Cl)cc1	92 to 94 °C

Compound	melting point
Cc1c(OCc2ccccc2)ccc(-c2cc(O)c(SCCc3ccccc3)c(=O)o2)c1O	147 to 148 °C
CN(C)c1nc(=O)[nH]n1C	222 °C
COc1ccccc1N1CCN(CCCCCC(=O)N2Cc3ccccc3C2)CC1	100 °C
Cc1nc(N2CCCC(CCCc3ccccc3)C2=O)sc1C(=O)NCc1ccccc1 (centres undefined)	140 to 141 °C
CCc1[nH]c(=S)[nH]c1-c1cc(C(C)(C)C)c(O)c(C(C)(C)C)c1	279 to 281 °C
CC(C)(C)C1CC(=CO)C(Cl)=C(C=O)C1 (centres undefined)	154 to 157 °C
COc1ccc(CN(CCN(C)CCN=C(NC#N)NCCSCc2csc(NC(=N)N)n2)c2ccccn2)cc1	56 to 58 °C
NC(=O)N1CCC2(CC1)CN(c1ccccc1[N+](=O)[O-])c1ccccc12	218 to 219 °C
CCCCc1oc2cc(Br)ccc2c1CC1(c2ccc(OC)cc2)OCN=C1Br (centres undefined)	93 to 95 °C
Cc1ccccc1C(=O)N1CCc2nnc(NN)cc2C1	98 to 100 °C
Cc1nc(COc2ccc3c(c2)c(SC(C)(C)C)c(CC(C)(C)C(=O)O)n3Cc2ccc(Cl)cc2)cs1	196 to 198 °C
COc1ccc(CC#Cc2ccc3c(c2)c(=O)n(Cc2ccccc2)c2nncn32)cc1	267 °C
O=C(NOCCO)c1cc(Br)c(F)c(F)c1Nc1ccc(I)cc1F	189 to 190 °C
O=C(O)c1ccc2c(c1)C(=O)C(=Cc1ccccc1)O2	285 to 287 °C
O=CNNC(=S)Nc1ccccc1F	148 to 149 °C
C=CC[C@H](C(N)=O)[C@@H](CC(C)C)C(=O)NC1N=C(N(C)c2ccccc2)c2ccccc2N(C)C1=O (some centres undefined)	267 to 268 °C
Cn1nnnc1C(F)(F)C(O)(Cn1cncn1)c1ccc(F)cc1F (centres undefined)	160 to 165 °C
NC(=O)c1ccccc1OCCNCC(O)COc1nccnc1Cl (centres undefined)	132 to 133 °C
CC(C)(C)CC(NC(=O)c1ccc(Cl)cc1)NC(=N[N+](=O)[O-])Nc1cccnc1 (centres undefined)	184 to 185 °C
CCOP(=O)(CCc1cccc(-c2nc(=O)c3ccccc3s2)n1)OCC	149 to 150 °C
O=C1CCC(c2ccccc2O)=NN1	211 to 212 °C
COc1cc(C)cc2c1C(C)(C)CCC2(C)C	49 to 50 °C
COC(c1ccccc1)C(C)O (centres undefined)	104 to 106 °C
CC(C)Oc1ccc2ccc(N)nc2n1	170 °C
